Read-outs that look alike come from different tables or passages of the source.
Assays:
[1] = test system: HepG2 cells; assay: High content imaging cytotoxicity parameters: selected cell count per valid field (SCC) and CMFDA cytoplasm average intensity
Method: (§1) HepG2 cells (Order No. HB-8065, Lot. 58483209, ATCC, Manassas, USA) were cultured in DMEM/F12 with L-Glutamine and 15 mM Hepes supplemented with 10% (v/v) FBS, 1% (v/v) penicillin (10 kU/ml)/streptomycin (10 mg/ml) solution, 0.1% (v/v) gentamicin (50 mg/ml), and 1 mM sodium pyruvate at 37° C. and 5% CO2 in culture flasks. Depending on the experiment, an appropriate number of cells were seeded onto plates after detaching of the cells using trypsin and cells were cultured at 37° C. and 5% CO2 for 24 h prior to treatment. All experiments were performed three times with cells of passages 4-20.
(§2) Cells were seeded onto black Poly-D-Lysin coated 96-well-plates (BD Biocoat, Franklin Lakes, USA) (0.02×10^6 cells/well) and left 24 h for adherence and then treated with test compounds at a maximum concentration of 1 mM which is recommended by the ICH S2(R1) guideline (EMA, 2011). For each compound, nine concentrations were tested with 2-fold serial dilutions. DMSO 1% (v/v) served as vehicle control for the experiments. The treatment procedure was different for direct-genotoxic and pro-genotoxic compounds. The treatment for direct genotoxic compounds was ongoing and was repeated daily over 48 h. Pro-genotoxic compounds were incubated for 6 h together with metabolic activation system (to limit the cytotoxic effect of the S9-mixture). After this period, cells were washed with cell media followed by 18-repeated daily over 48 h. The metabolic activation system used consisted of the following components and concentrations: 8 mM MgCl2, 32.8 mM KCl, 12 mM NADPH, 124 mM phosphate buffer and 2500 pmol/ml cytochrome P450 (CYP) content in the pre-mixture corresponding to 2.4 mM MgCl2, 9.8 mM KCl, 3.6 mM NADPH, 37.2 mM phosphate buffer, and 750 pmol/ml CYP as final concentrations after dilution 1:3.33 with cell culture media.
After treatment, cells were rinsed with PBS (Gibco Invitrogen, Karlsruhe, Germany), and then stained with 10 μM CellTracker Green 5-Chloromethylfluorescein Diacetate (CMFDA) (Invitrogen, Karlsruhe, Germany) in cell culture media for 30 min. CMFDA is per se non-fluorescent and is hydrolyzed by esterase in viable cells to a fluorescent-dye. The reaction with thiol groups leads to a cell-impermeable fluorescent-dye-adduct. The esterase activity can be used as an indicator for viability of cells (Papadopoulos et al., 1994, J Immunol Methods 177, 101-11). Afterwards, cells were washed with PBS and fixed with 3.7% Formaldehyde (Sigma-Aldrich, Taufkirchen, Germany) in PBS for 20 min. After that, cells were washed with PBS and blocked and permeabilized with 2% donkey serum (Millipore, Schwalbach, Germany) and 0.25% Triton X-100 (Sigma-Aldrich, Taufkirchen, Germany) in PBS for 30 min. Primary antibodies were diluted in Blocking/Permeabilization solution to final concentrations of 4 μg/ml anti-p-Chk1 (Ser345) goat polyclonal antibody IgG (santa cruz, Santa Cruz, USA), 4 μg/ml anti-p-ATM (Ser1981) mouse monoclonal antibody IgG1K (Millipore, Schwalbach, Germany) and added to the cells. After incubation for 16-18 h, cells were washed with 0.05% Tween 20 (Calbiochem, Darmstadt, Germany) in PBS, and the secondary antibody/16 μM Hoechst staining solution Blocking/Permeabilization solution was added. Secondary antibodies were diluted 1:400 (Alexa Fluor 555 donkey anti-goat, Alexa Fluor 647 donkey anti-mouse, Invitrogen, Karlsruhe, Germany). After an incubation of 1 h, followed by two additional washing steps with 0.05% Tween 20, cells were washed with PBS and finally PBS was added and cells were measured.
Image acquisition was performed on the ArrayScan VTI HCS Reader (Cellomics, Pittsburgh, USA) using a 20× objective. To detect enough cells, 50 images starting at the middle of each well were gathered.
• Channel 1: selected cell count per valid field • Channel 2: CMFDA cytoplasm average intensity • Channel 3: p-Chk1 (Ser345) nucleus average intensity • Channel 4: p-ATM (Ser1981) nucleus average intensity

[2] = test system: p-p53 (Ser15), p21, p-H2A.X (Ser139), p-ATM (Ser1981), p-Chk1 (Ser345) in HepG2 cells
Method: as §1, §2
Two different staining procedures were performed for each compound with and without metabolic activation system:
After treatment, cells were rinsed with PBS (Gibco Invitrogen, Karlsruhe, Germany), and then fixed with 3.7% formaldehyde (Sigma-Aldrich, Taufkirchen, Germany) in PBS for 20 min. After an additional washing step with PBS, cells were blocked and permeabilized with 2% donkey serum (Millipore, Schwalbach, Germany) and 0.25% Triton X-100 (Sigma-Aldrich, Taufkirchen, Germany) in PBS for 30 min. Primary antibodies were diluted to final concentrations of 2 μg/ml anti-p-p53 (Ser15) rabbit monoclonal antibody IgG (Invitrogen, Karlsruhe, Germany), 0.8 μg/ml anti-p21 goat polyclonal antibody IgG, (R&D systems, Minneapolis, USA); 4 μg/ml anti-p-Histone H2A.X (Ser139) mouse monoclonal antibody IgG1 (Millipore, Schwalbach, Germany) in Blocking/Permeabilization solution were added afterwards. After incubation for 16-18 h, cells were washed with 0.05% Tween 20 (Calbiochem, Darmstadt, Germany) in PBS and the secondary antibody/16 μM Hoechst staining solution in Blocking/Permeabilization solution was added. Secondary antibodies were diluted 1:400 (Alexa Fluor 488 donkey anti-rabbit, Alexa Fluor 555 donkey anti-goat, Alexa Fluor 647 donkey anti-mouse, Invitrogen, Karlsruhe, Germany). After an incubation of 1 h, followed by two additional washing steps with 0.05% Tween 20, cells were washed with PBS and finally PBS was added and cells were measured.
After treatment, cells were rinsed with PBS (Gibco Invitrogen, Karlsruhe, Germany), and then stained with 10 μM CellTracker Green 5-Chloromethylfluorescein Diacetate (CMFDA) (Invitrogen, Karlsruhe, Germany) in cell culture media for 30 min. CMFDA is per se non-fluorescent and is hydrolyzed by esterase in viable cells to a fluorescent-dye. The reaction with thiol groups leads to a cell-impermeable fluorescent-dye-adduct. The esterase activity can be used as an indicator for viability of cells (Papadopoulos et al., 1994, J Immunol Methods 177, 101-11). Afterwards, cells were washed with PBS and fixed with 3.7% Formaldehyde (Sigma-Aldrich, Taufkirchen, Germany) in PBS for 20 min.

[3] = HepG2 cells, 48 h, CMFDA cytoplasm average intensity, with rat liver S9 (+S9)
[4] = HepG2 cells, 48 h, CMFDA cytoplasm average intensity, without metabolic activation (−S9)
[5] = HepG2 cells, 48 h, selected cell count per valid field, with rat liver S9 (+S9)
[6] = HepG2 cells, 48 h, selected cell count per valid field, without metabolic activation (−S9)

Molecule: Cc1noc(NS(=O)(=O)c2ccc(N)cc2)c1C [Sulfisoxazole]
- CMFDA +S9 highest conc. <50% cytotox. over control ([1]; human, 48 h): 1000 µM
- CMFDA −S9 highest conc. <50% cytotox. over control ([1]; human, 48 h): 1000 µM
- SCC +S9 highest conc. <50% cytotox. over control ([1]; human, 48 h): 1000 µM
- SCC −S9 highest conc. <50% cytotox. over control ([1]; human, 48 h): 1000 µM

Molecule: CC(=O)O[C@H]1C(=O)[C@@]2(C)[C@H]([C@H](OC(=O)c3ccccc3)[C@]3(O)C[C@H](OC(=O)[C@H](O)[C@@H](NC(=O)c4ccccc4)c4ccccc4)C(C)=C1C3(C)C)[C@]1(OC(C)=O)CO[C@@H]1C[C@@H]2O [Taxol]
- CMFDA +S9 highest conc. <50% cytotox. over control ([1]; human, 48 h): 1000 µM
- CMFDA −S9 highest conc. <50% cytotox. over control ([1]; human, 48 h): 1000 µM
- SCC +S9 highest conc. <50% cytotox. over control ([1]; human, 48 h): 500 µM
- SCC −S9 highest conc. <50% cytotox. over control ([1]; human, 48 h): 1000 µM

Molecule: CC(C)(C)c1cc(O)ccc1O [Tertiary-butylhydroquinone]
- CMFDA +S9 highest conc. <50% cytotox. over control ([1]; human, 48 h): 1000 µM
- CMFDA −S9 highest conc. <50% cytotox. over control ([1]; human, 48 h): 125 µM
- SCC +S9 highest conc. <50% cytotox. over control ([1]; human, 48 h): 1000 µM
- SCC −S9 highest conc. <50% cytotox. over control ([1]; human, 48 h): 125 µM

Molecule: CCCCC(CC)COP(=O)(OCC(CC)CCCC)OCC(CC)CCCC (centres unmarked) [Tris(2-ethylhexyl)phosphate]
- CMFDA +S9 highest conc. <50% cytotox. over control [1, 3]: 1000 µM
- CMFDA −S9 highest conc. <50% cytotox. over control [1, 4]: 7.813 µM
- SCC +S9 highest conc. <50% cytotox. over control [1, 5]: 1000 µM
- SCC −S9 highest conc. <50% cytotox. over control [1, 6]: 500 µM

Molecule: NC(N)=O [Urea]
- CMFDA +S9 highest conc. <50% cytotox. over control [1, 3]: 1000 µM
- CMFDA −S9 highest conc. <50% cytotox. over control [1, 4]: 1000 µM
- SCC +S9 highest conc. <50% cytotox. over control [1, 5]: 1000 µM
- SCC −S9 highest conc. <50% cytotox. over control [1, 6]: 1000 µM

Molecule: CCCCCl [n-butyl chloride]
- CMFDA +S9 highest conc. <50% cytotox. over control [1]: 1000 µM
- CMFDA −S9 highest conc. <50% cytotox. over control [1]: 1000 µM
- SCC +S9 highest conc. <50% cytotox. over control [1]: 1000 µM
- SCC −S9 highest conc. <50% cytotox. over control [1]: 1000 µM

Molecule: Nc1ccccc1C(=O)O [o-Anthranilic acid]
- CMFDA +S9 highest conc. <50% cytotox. over control [1, 3]: 1000 µM
- CMFDA −S9 highest conc. <50% cytotox. over control [1, 4]: 1000 µM
- SCC +S9 highest conc. <50% cytotox. over control [1, 5]: 1000 µM
- SCC −S9 highest conc. <50% cytotox. over control [1, 6]: 1000 µM

Molecule: O=[N+]([O-])c1ccc(O)cc1 [p-Nitrophenol]
- result for the five protein markers tested (compound set as positive or negative) [2]: positive

Molecule: Nc1ccc(Cl)cc1 [p-chloroaniline]
- CMFDA +S9 highest conc. <50% cytotox. over control ([1]; human): 1000 µM
- CMFDA −S9 highest conc. <50% cytotox. over control ([1]; human): 1000 µM
- SCC +S9 highest conc. <50% cytotox. over control ([1]; human): 1000 µM
- SCC −S9 highest conc. <50% cytotox. over control ([1]; human): 1000 µM

Molecule: Aflatoxin B1
- CMFDA +S9 highest conc. <50% cytotox. over control [1]: 500 µM
- CMFDA −S9 highest conc. <50% cytotox. over control [1]: 500 µM
- SCC +S9 highest conc. <50% cytotox. over control [1]: 500 µM
- SCC −S9 highest conc. <50% cytotox. over control [1]: 31.25 µM

Molecule: Sodium xylene sulfonate
- CMFDA +S9 highest conc. <50% cytotox. over control [1, 3]: 1000 µM
- CMFDA −S9 highest conc. <50% cytotox. over control [1, 4]: 1000 µM
- SCC +S9 highest conc. <50% cytotox. over control [1, 5]: 1000 µM
- SCC −S9 highest conc. <50% cytotox. over control [1, 6]: 1000 µM

Source: patent publication US20150140123A1, “Protein expression analyses for identifying genotoxic compounds” (Merck Patent GmbH, priority 2012, published 2015)
